The target in assay [1] is HCV NS3 protease genotype 3a (3A-1) (Hepatitis C virus genotype 3a, UniProt Q81258). Nature of the assay: HCV NS3 protease time-resolved fluorescence (TRF) assay, genotype 3a. The class given is biochemical. To be noted: Ki 3a. The procedure, abridged:
(§1)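 Time-resolved fluorescence, ex 340/em 615 nm, 400 μs delay; IC50 by four-parameter fit. Enzyme preincubated with compound 10 min, then TRF substrate 25 nM final added and reaction run 6 h at RT. Buffer HEPES pH 7.5 with NaCl, glycerol, Triton X-100, DTT, PEG 8000.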

Assay [2] deals with T1, HCV genotype 1b (BK) NS3 modified enzyme with a R155K mutation (Hepatitis C virus genotype 1b, UniProt P26663, R1181K).
T1 construct: HCV genotype 1b (BK) NS3 modified enzyme
Nature of the assay: HCV NS3 protease time-resolved fluorescence (TRF) assay, genotype 1b R155K. Format: biochemical. To be noted: Ki 1b R155K. The procedure, abridged: as §1

[3] abbreviates: genotype 1b (BK) NS3 R155K, single value.
Setting [4] is: first of two values printed in the cell (not explained).
Where [5] appears, read: second of two values printed in the cell (not explained).

The structures appear in SMILES notation.

For the molecule `C=C[C@@H]1C[C@]1(NC(=O)[C@@H]1C[C@@H]2CN1C(=O)[C@H](C(C)(C)C)NC(=O)O[C@@H]1C[C@H]1CCCCCc1c(nc3ccccc3c1OCC1CCCN(CC)C1)O2)C(=O)NS(=O)(=O)C1(C)CC1` (stereo partly drawn) [Example 139, (1aR,5S,8S,10R,22aR)-5-tert-butyl-N-[(1R,2S)-2-ethenyl-1-{[(1-methylcyclopropyl)sulfonyl]carbamoyl}cyclopropyl]-17-[(1-ethylpiperidin-3-yl)methoxy]-3,6-dioxo-1,1a,3,4,5,6,9,10,18,19, 20,21,22,22a-tetradeca hydro-8H-7,10-methanocyclopropa[18,19] [1,10,3,6]dioxadiazacyclo nonadecino[11,12-b]quinoline-8-carboxamide], the Ki (usually the equilibrium dissociation constant of an inhibitor or competing ligand from its target) in assay [1] was 0.38 nM; in assay [2] (setting [3]) it was 0.1 nM.

As for `C=C[C@@H]1C[C@]1(NC(=O)[C@@H]1C[C@@H]2CN1C(=O)[C@H](C(C)(C)C)NC(=O)O[C@@H]1C[C@H]1CCCCCc1c(nc3ccccc3c1OCCCN(C)C(C)C(O)c1ccccc1)O2)C(=O)NS(=O)(=O)C1(C)CC1` (stereo partly drawn) [Example 190, (1aR,5S,8S,10R,22aR)-5-tert-butyl-N-[(1R,2S)-2-ethenyl-1-{[(1-methylcyclopropyl)sulfonyl]carbamoyl}cyclopropyl]-17-{3-[(1-hydroxy-1-phenylpropan-2-yl)(methyl)amino]propoxy}-3,6-dioxo-1,1a,3,4,5,6,9,10,18,19,20,21,22,22a-tetradecahydro-8H-7,10-methanocyclopropa[18,19][1,10,3,6] dioxadiazacyclononadecino[11,12-b] quinoline-8-carboxamide], the figures for the Ki in assay [1] and in assay [2] (setting [3]) were 1.5 nM and 0.074 nM, respectively.

As for `C=C[C@@H]1C[C@]1(NC(=O)[C@@H]1C[C@@H]2CN1C(=O)[C@H](C1CCCC1)NC(=O)O[C@@H]1CCC[C@H]1CC/C=C/Cc1c(nc3ccccc3c1OCCCn1cnnc1)O2)C(=O)NS(=O)(=O)C1(C)CC1` [Example 53, (3aR,7S,10S,12R,21E,24aS)-7-cyclopentyl-N-[(1R,2S)-2-ethenyl-1-{[(1-methylcyclopropyl)sulfonyl]carbamoyl}cyclopropyl]-5,8-dioxo-19-[3-(4H-1,2,4-triazol-4-yl)propoxy]-1,2,3,3a,5,6,7,8,11,12,20,23,24,24a-tetra decahydro-10H-9,12-methanocyclopenta[18,19][1,10,3,6] dioxadiazacyclononadecino[11,12-b] quinoline-10-carboxamide], the inhibition constant (Ki) was found to be 0.55 nM in assay [1] and 0.11 nM in assay [2] (setting [3]).

For `C=C[C@@H]1C[C@]1(NC(=O)[C@@H]1C[C@@H]2CN1C(=O)[C@H](C(C)(C)C)NC(=O)O[C@@H]1C[C@H]1CCCCCc1c(nc3ccccc3c1OCC1CCN(C)C1)O2)C(=O)NS(=O)(=O)C1(C)CC1` (stereo partly drawn) [Example 141, (1aR,5S,8S,10R,22aR)-5-tert-butyl-N-[(1R,2S)-2-ethenyl-1-{[(1-methylcyclopropyl)sulfonyl]carbamoyl}cyclopropyl]-17-[(1-methylpyrrolidin-3-yl)methoxy]-3,6-dioxo-1,1a,3,4,5,6,9,10,18,19,20,21,22,22a-tetradecahydro-8H-7,10-methanocyclopropa[18,19][1,10,3,6] dioxadiazacyclononadecino [11,12-b]quinoline-8-carboxamide], the Ki in assay [1] was determined as 0.33 nM; in assay [2] (setting [3]), 0.066 nM.

With `C=C[C@@H]1C[C@]1(NC(=O)[C@@H]1C[C@@H]2CN1C(=O)[C@H](C(C)(C)C)NC(=O)O[C@@H]1C[C@H]1CCCCCc1c(nc3ccccc3c1OCCCN(C)Cc1ccn[nH]1)O2)C(=O)NS(=O)(=O)C1(C)CC1` [Example 202, (1aR,5S,8S,10R,22aR)-5-tert-butyl-N-[(1R,2S)-2-ethenyl-1-{[(1-methylcyclopropyl)sulfonyl]carbamoyl}cyclopropyl]-17-{3-[methyl(1H-pyrazol-5-ylmethyl)amino]propoxy}-3,6-dioxo-1,1a,3,4,5,6,9,10,18, 19,20,21,22,22a-tetradecahydro-8H-7,10-methanocyclopropa[18,19][1,10,3,6] dioxadiazacyclononadecino[11,12-b] quinoline-8-carboxamide], the Ki in assay [1] was 0.95 nM; in assay [2] (setting [3]), 0.05 nM.

`C=C[C@@H]1C[C@]1(NC(=O)[C@@H]1C[C@@H]2CN1C(=O)[C@H](C1CCCCC1)NC(=O)O[C@@H]1C[C@H]1CCCCCc1c(nc3ccccc3c1OCCCN1CC(F)(F)C1)O2)C(=O)NS(=O)(=O)C1(C)CC1` [Example 249, (1aR,5S,8S,10R,22aR)-5-cyclohexyl-17-[3-(3,3-difluoroazetidin-1-yl)propoxy]-N-[(1R,2S)-2-ethenyl-1-{[(1-methylcyclopropyl)sulfonyl]carbamoyl}cyclopropyl]-3,6-dioxo-1,1a,3,4,5,6,9,10,18,19,20,21,22,22a-tetradecahydro-8H-7,10-methanocyclopropa[18,19][1,10,3,6]dioxadiazacyclononadecino[11,12-b]quinoline-8-carboxamide]: the Ki came to 7.55 nM in assay [1], 0.026 nM in assay [2] (setting [4]) and 0.5 nM in assay [2] (setting [5]).

For `C=C[C@@H]1C[C@]1(NC(=O)[C@@H]1C[C@@H]2CN1C(=O)[C@H](C1CCCC1)NC(=O)O[C@@H]1CCC[C@H]1CC/C=C/Cc1c(nc3ccccc3c1O)O2)C(=O)NS(=O)(=O)C1(C)CC1` [Example 23, (3aR,7S,10S,12R,21E,24aS)-7-cyclopentyl-N-[(1R,2S)-2-ethenyl-1-{[(1-methylcyclopropyl)sulfonyl]carbamoyl}cyclopropyl]-19-hydroxy-5,8-dioxo-1,2,3,3a,5,6,7,8,11,12,20,23,24,24a-tetradecahydro-10H-9,12-methanocyclopenta[18,19][1,10,3,6]dioxadiazacyclononadecino[11,12-b]quinoline-10-carboxamide], the values for the Ki in assay [1] and in assay [2] (setting [3]) were 0.64 nM and 0.11 nM, respectively.

In the case of `C=C[C@@H]1C[C@]1(NC(=O)[C@@H]1C[C@@H]2CN1C(=O)[C@H](C1CCCC1)NC(=O)O[C@@H]1CCC[C@H]1CCCCCc1c(nc3ccccc3c1O)O2)C(=O)NS(=O)(=O)C1CC1` [Example 34, (3aR,7S,10S,12R,24aR)-7-cyclo pentyl-N-{(1R,2S)-1-[(cyclopropylsulfonyl)carbamoyl]-2-ethenylcyclopropyl}-19-hydroxy-5,8-dioxo-1,2,3,3a,5,6,7,8,11,12,20,21,22,23,24,24a-hexadecahydro-10H-9,12-methanocyclopenta [18,19][1,10,3,6]dioxadiazacyclononadecino [11,12-b]quinoline-10-carboxamide], the inhibition constant (Ki) in assay [1] turned out to be 1.8 nM; in assay [2] (setting [3]), 0.1 nM.

Regarding `C=C[C@@H]1C[C@]1(NC(=O)[C@@H]1C[C@@H]2CN1C(=O)[C@H](C(C)(C)C)NC(=O)O[C@@H]1CCC[C@H]1CCCCCc1c(nc3ccccc3c1OCCCN1CCOCC1)O2)C(=O)NS(=O)(=O)C1CC1` [Example 98, (3aR,S,10S,12R,24aR)-7-tert-butyl-N-{(1R,2S)-1-[(cyclopropyl-sulfonyl)carbamoyl]-2-ethenylcyclopropyl}-19-[3-(morpholin-4-yl)propoxy]-5,8-dioxo-1,2,3,3a,5,6,7,8,11,12,20,21,22,23, 24,24a-hexadecahydro-10H-9,12-methanocyclopenta [18,19][1,10,3,6]dioxadiazacyclo-nonadecino[11,12-b]quinoline-10-carboxamide], the inhibition constant (Ki) in assay [1] worked out at 2.9 nM; in assay [2] (setting [3]), 0.18 nM.

Consider `C=C[C@@H]1C[C@]1(NC(=O)[C@@H]1C[C@@H]2CN1C(=O)[C@H](C(C)(C)C)NC(=O)O[C@@H]1C[C@H]1CCCCCc1c(nc3ccccc3c1OC1CC3CCC(C1)N3CCOC)O2)C(=O)NS(=O)(=O)C1(C)CC1` (single isomer, unassigned) [Example 276], for which the values for the inhibition constant (Ki) in assay [1], in assay [2] (setting [4]) and in assay [2] (setting [5]) were 0.14 nM, 0.013 nM and 0.019 nM, respectively.

On to `C=C[C@@H]1C[C@]1(NC(=O)[C@@H]1C[C@@H]2CN1C(=O)[C@H](C(C)(C)C)NC(=O)O[C@@H]1C[C@H]1CCCCCc1c(nc3ccccc3c1OCCCN(CCO)Cc1ccccc1)O2)C(=O)NS(=O)(=O)C1(C)CC1` [Example 187, (1aR,5S,8S,10R,22aR)-17-{3-[benzyl(2-hydroxyethyl)amino]propoxy}-5-tert-butyl-N-[(1R,2S)-2-ethenyl-1-{[(1-methylcyclopropyl)sulfonyl]carbamoyl}cyclopropyl]-3,6-dioxo-1,1a, 3,4,5,6,9,10,18,19,20,21,22,22a-tetradecahydro-8H-7,10-methanocyclopropa[18,19][1,10,3,6] dioxadiazacyclononadecino[11,12-b] quinoline-8-carboxamide], for which the inhibition constant (Ki) in assay [1] came to 6.1 nM; in assay [2] (setting [3]), 0.24 nM.

In the case of `C=CC1C[C@]1(NC(=O)[C@@H]1C[C@@H]2CN1C(=O)[C@H](C1CCCC1)NC(=O)O[C@@H]1CCC[C@H]1CC/C=C/Cc1c(nc3ccccc3c1OCCCN(C)C)O2)C(=O)NS(=O)(=O)C1CC1` (stereo partly drawn) [Example 77, (3aR,7S,10S,12R,21E,24aS)-7-cyclo pentyl-N-{(1R,2S)-1-[(cyclopropylsulfonyl)carbamoyl]-2-ethenylcyclopropyl}-19-[3-(dimethylamino)propoxy]-5,8-dioxo-1,2,3,3a,5,6,7,8,11,12,20,23,24, 24a-tetradecahydro-10H-9,12-methano cyclopenta[18,19][1,10,3,6] dioxadiazacyclo-nonadecino[11,12-b]quinoline-10-carboxamide], the inhibition constant (Ki) in assay [1] worked out at 0.72 nM; in assay [2] (setting [3]) it was 0.09 nM.

Turning to `C=C[C@@H]1C[C@]1(NC(=O)[C@@H]1C[C@@H]2CN1C(=O)[C@H](C1CCCCC1)NC(=O)O[C@@H]1C[C@H]1CCCCCc1c(nc3ccccc3c1OCCCN1CCC(C(F)(F)F)CC1)O2)C(=O)NS(=O)(=O)C1(C)CC1` [Example 167], the figures for the Ki in assay [1] and in assay [2] (setting [3]) were 41 nM and 1.3 nM, respectively.

For the origin of these results see patent publication US9328138B2 (priority 2011, dated 2016).
